Data as given in EP2979694B1, “Dimercaptosuccinic acid for the treatment of multidrug resistant bacterial infections” (priority 2014, dated 2016).

Legend:
Assay in all cases: MIC of carbapenems with or without DMSA
[1] = system: E. coli JAP; type: cell-based; details: IMP-1, no DMSA, unit assumed
Protocol: (§1) Minimum inhibitory concentrations (MICs) of carbapenems were determined in-vitro with strains (reference and clinical) producing the three main types of class B carbapenemases which are IMP, VIM and NDM, with or without EDTA and DMSA.
(§2) MICs of imipenem was determined for E. coli TOP10 pCR2.1-(PNDM-1-blaNDM-1-bleMBL) in the presence of 0, 0.01, 0.1 or 1 mg/ml of Ca-EDTA or DMSA by using the broth microdilution method in zinc-complemented M9CA minimum medium (SD7025, Euromedex, France).
(§3) A 100 mM DMSA stock solution (Sigma Aldrich, France) (pH 5.0) was prepared in 0.2 M NaOH as recommended (Maiorino et al. 1990) and pH was neutralized to pH 7.0 with NaHCO3 Na2Ca-EDTA (Sigma Aldrich, France) dissolved in water.
(§4) The strains were as follows: VIM producers (n=10), IMP producers (n=9), NDM-1 producers (n=10). The selected concentration of DMSA was 10-fold (0.3 mM) and 100-fold (3 mM) that of the human peak serum concentration after oral administration (Asiedu et al;, 1995), and that of Ca-EDTA was assayed at the fixed concentration of 0.2 mM (Table 2). […]

[2] = system: E. coli COUP; type: cell-based; details: NDM-7 + OXA-1 +CTX-M-15, no DMSA, unit assumed
Protocol: as §1, §2, §3, §4

[3] = system: E. cloacae 1008085; type: cell-based; details: E. cloacae 1008085, IMP-1; no DMSA; unit assumed
Protocol: as §1, §2, §3, §4

[4] = system: E. coli 0404018; type: cell-based; details: E. coli 0404018, VIM-1 + CMY-6; no DMSA; unit assumed
Protocol: as §1, §2, §3, §4

[5] = system: E. coli 162; type: cell-based; details: E. coli 162, NDM-5 + TEM-1 +CTX-M-15; no DMSA; unit assumed
Protocol: as §1, §2, §3, §4

[6] = system: E. cloacae 396715; type: cell-based; details: E. cloacae 396715, VIM-1; no DMSA; unit assumed
Protocol: as §1, §2, §3, §4

[7] = system: E. coli DIH; type: cell-based; details: VIM-19, no DMSA, unit assumed
Protocol: as §1, §2, §3, §4

[8] = system: E. coli RIC; type: cell-based; details: NDM-1 + CMY-16 + OXA-1 + OXA-10, no DMSA, unit assumed
Protocol: as §1, §2, §3, §4

[9] = system: E. cloacae 1008186; type: cell-based; details: E. cloacae 1008186, IMP-1; no DMSA; unit assumed
Protocol: as §1, §2, §3, §4

[10] = system: E. coli BOUN; type: cell-based; details: NDM-4 + OXA-1, no DMSA, unit assumed
Protocol: as §1, §2, §3, §4

[11] = system: E. coli IBIS; type: cell-based; details: VIM-4, no DMSA, unit assumed
Protocol: as §1, §2, §3, §4

[12] = system: E. coli FEK; type: cell-based; details: NDM-4 + NDM-4 + OXA-1 + CTX-M-15, no DMSA, unit assumed
Protocol: as §1, §2, §3, §4

[13] = system: E. coli 1108013; type: cell-based; details: E. coli 1108013, IMP-1 + TEM-1; no DMSA; unit assumed
Protocol: as §1, §2, §3, §4

[14] = system: E. coli MAD; type: cell-based; details: VIM-1 + CTX-M-3, no DMSA, unit assumed
Protocol: as §1, §2, §3, §4

[15] = system: E. coli 1008077; type: cell-based; details: E. coli 1008077, VIM-1 + TEM-3; no DMSA; unit assumed
Protocol: as §1, §2, §3, §4

[16] = system: E. coli 405; type: cell-based; details: E. coli 405, NDM-5 + TEM-1 +CTX-M-15; no DMSA; unit assumed
Protocol: as §1, §2, §3, §4

[17] = system: E. coli IR5; type: cell-based; details: E. coli IR5, NDM-1 + TEM-1 +CTX-M-15; no DMSA; unit assumed
Protocol: as §1, §2, §3, §4

[18] = system: E. cloacae 1008029; type: cell-based; details: E. cloacae 1008029, VIM-1 + CTX-M-3; no DMSA; unit assumed
Protocol: as §1, §2, §3, §4

[19] = system: E. cloacae KOW3; type: cell-based; details: E. cloacae KOW3, VIM-1 + CTX-M-15+ TEM-1 + SHV-31; no DMSA; unit assumed
Protocol: as §1, §2, §3, §4

[20] = system: E. cloacae 1008183; type: cell-based; details: E. cloacae 1008183, IMP-1; no DMSA; unit assumed
Protocol: as §1, §2, §3, §4

[21] = system: E. coli ALL; type: cell-based; details: NDM-1 + TEM-1 +CTX-M-15+OXA-1 + OXA-2, no DMSA, unit assumed
Protocol: as §1, §2, §3, §4

[22] = system: E. cloacae TAW; type: cell-based; details: IMP-8, no DMSA, unit assumed
Protocol: as §1, §2, §3, §4

[23] = system: C. freundii MIG; type: cell-based; details: VIM-2 + TEM-1 +OXA-9 + OXA-10, no DMSA, unit assumed
Protocol: as §1, §2, §3, §4

[24] = system: K.p. 6852; type: cell-based, K. pneumoniae; details: K.p. 6852, IMP-1 + SHV-5; no DMSA; unit assumed
Protocol: as §1, §2, §3, §4

[25] = system: K.p. 0709124; type: cell-based, K. pneumoniae; details: K.p. 0709124, IMP-1b + TEM-15; no DMSA; unit assumed
Protocol: as §1, §2, §3, §4

[26] = system: K.p. TAW; type: cell-based, K. pneumoniae; details: IMP-8 + SHV-5, no DMSA, unit assumed
Protocol: as §1, §2, §3, §4

[27] = system: K.p. KIE; type: cell-based, K. pneumoniae; details: NDM-1 + SHV-38 + CMY-16 + OXA-10, no DMSA, unit assumed
Protocol: as §1, §2, §3, §4

[28] = system: K.p. ROUM; type: cell-based, K. pneumoniae; details: VIM, no DMSA, unit assumed
Protocol: as §1, §2, §3, §4

[29] = system: K.p. OMA1; type: cell-based, K. pneumoniae; details: K.p. OMA1, NDM-1 + TEM-1 +CTX-M-15+ SHV-28 + OXA-1 + OXA-9; no DMSA; unit assumed
Protocol: as §1, §2, §3, §4

## C[C@@H](O)[C@H]1C(=O)N2C(C(=O)O)=C(S[C@@H]3CN[C@H](C(=O)Nc4cccc(C(=O)O)c4)C3)[C@H](C)[C@H]12 [ETP, ertapenem]
[1]
  MIC: 0.5 µg/mL
[2]
  MIC: 32 µg/mL
[3]
  MIC: 8 µg/mL
[4]
  MIC: 4 µg/mL
[5]
  MIC: > 32 µg/mL
[6]
  MIC: 2 µg/mL
[7]
  MIC: 8 µg/mL
[8]
  MIC: 8 µg/mL
[9]
  MIC: 32 µg/mL
[10]
  MIC: 16 µg/mL
[11]
  MIC: 2 µg/mL
[12]
  MIC: > 32 µg/mL
[13]
  MIC: 32 µg/mL
[14]
  MIC: 0.25 µg/mL
[15]
  MIC: > 32 µg/mL
[16]
  MIC: > 32 µg/mL
[17]
  MIC: 32 µg/mL
[18]
  MIC: > 32 µg/mL
[19]
  MIC: > 32 µg/mL
[20]
  MIC: 8 µg/mL
[21]
  MIC: 16 µg/mL
[22]
  MIC: 4 µg/mL
[23]
  MIC: 2 µg/mL
[24]
  MIC: > 32 µg/mL
[25]
  MIC: 32 µg/mL
[26]
  MIC: 0.5 µg/mL
[27]
  MIC: 4 µg/mL
[28]
  MIC: > 32 µg/mL
[29]
  MIC: > 32 µg/mL
